Experimental data: patent US20090181896A1, “Use of Natriuretic Peptide Receptor Antagonists to Treat Ocular, Otic and Nasal Edemetous Conditions” (ALCON RESEARCH, LTD., priority 2006, published 2009)

Legend:
Assay type in all cases: cell-based
[1] = biological target: T1, Type-A natriuretic peptide receptor in human conjunctival epithelial cells (Chang cells) (Homo sapiens, UniProt P16066); assay: Natriuretic peptide-stimulated cGMP production (guanylyl cyclase activity, EIA) in human conjunctival epithelial cells (Chang cells); settings: for Agonist character in words: cGMP production; for Intrinsic Activity (Emax; % Max. Response): cGMP production via type-A receptor
T1 construct: the most relevant cells are Chang cells (Clone 1-5C-4 Wong-Kilbourne Derivative); These cells were obtained from ATCC; host or cells: Chang cells (Clone 1-5C-4 Wong-Kilbourne Derivative), human conjunctival epithelial cells
T1 sequence (P16066 33-1061): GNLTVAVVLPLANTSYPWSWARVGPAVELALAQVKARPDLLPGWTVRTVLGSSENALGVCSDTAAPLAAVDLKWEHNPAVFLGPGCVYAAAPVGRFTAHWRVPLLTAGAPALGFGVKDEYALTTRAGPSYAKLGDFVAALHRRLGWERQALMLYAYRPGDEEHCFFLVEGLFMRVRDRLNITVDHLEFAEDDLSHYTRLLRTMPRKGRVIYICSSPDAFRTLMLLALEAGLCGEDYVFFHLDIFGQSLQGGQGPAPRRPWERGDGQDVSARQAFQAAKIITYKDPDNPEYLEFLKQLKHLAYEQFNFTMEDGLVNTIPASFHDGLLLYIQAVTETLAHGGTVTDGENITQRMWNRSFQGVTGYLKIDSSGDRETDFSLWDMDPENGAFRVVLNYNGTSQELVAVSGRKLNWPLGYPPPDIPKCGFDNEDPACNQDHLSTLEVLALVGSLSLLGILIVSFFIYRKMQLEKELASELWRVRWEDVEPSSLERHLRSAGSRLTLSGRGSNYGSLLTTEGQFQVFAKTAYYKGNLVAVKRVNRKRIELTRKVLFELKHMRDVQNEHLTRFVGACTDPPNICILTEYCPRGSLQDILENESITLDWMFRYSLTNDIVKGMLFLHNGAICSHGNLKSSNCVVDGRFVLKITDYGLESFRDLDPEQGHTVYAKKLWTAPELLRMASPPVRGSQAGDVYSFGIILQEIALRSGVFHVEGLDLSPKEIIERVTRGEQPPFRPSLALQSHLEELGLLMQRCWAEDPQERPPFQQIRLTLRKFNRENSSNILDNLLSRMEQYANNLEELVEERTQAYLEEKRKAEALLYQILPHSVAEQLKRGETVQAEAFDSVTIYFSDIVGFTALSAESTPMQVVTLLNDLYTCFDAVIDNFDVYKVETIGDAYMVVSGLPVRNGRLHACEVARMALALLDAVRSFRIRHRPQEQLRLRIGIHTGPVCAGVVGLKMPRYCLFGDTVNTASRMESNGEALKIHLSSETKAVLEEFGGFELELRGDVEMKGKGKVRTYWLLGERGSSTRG
Method: These cells were obtained from ATCC (Manassas, Va.) and cultured in medium 199, containing 10% fetal bovine serum and […] Gentamicin. (obtained from Gibco/Invitrogen; Carlsbad, Calif.).
Cells were seeded in 48-wells culture plates. On reaching confluence, the cells were rinsed twice with 0.5 ml Dulbeco's modified Eagle's medium (DMEM)/F-12. […] Natriuretic peptides (American Peptide Co. Inc., Sunnyvale, Calif.; Peninsula Labs. San Carlos, Calif.) were then added at the end of this period and the reaction was allowed to proceed for another 15 minutes at 23° C. After aspiration of the reaction medium, ice cold 0.1 M acetic acid ([…], pH 3.5) was added for the termination of cGMP synthesis and cell lysis. Finally, ice-cold 0.1 M sodium acetate ([…], pH 11.5-12.0) was added to neutralize the samples before analysis of cGMP by an enzyme immunoassay (EIA) kit. cGMP production in the cells was measured using the EIA kit purchased from Amersham Pharmacia Biotech (Piscataway, N.J.). This assay was conducted according to the package insert in an automated manner using a robotic workstation (Biomek 2000; Beckman Instrument, Fullerton, Calif.) (Sharif et al. Characterization of the ocular anti-allergic and anti-histaminic effects of Olopatadine (AL-4943A), a novel drug for treating ocular allergic diseases. J. Pharmacology & Experimental Therapeutics 278, 1251-1260, 1996; Crider et al. Pharmacological characterization of serotonin receptor (5HT7) stimulating cAMP production in human corneal epithelial cells. Invest. Ophthalmol. Vis. Sci. 44: 4837-4844, 2003). Data were analyzed using a non-linear, iterative curve-fitting computer program (IDBS, Surrey, UK) and Origin software package (Microcal Software, Inc., Northampton, Mass.) (Sharif et al. 1996; Crider et al. 2003).

[2] = biological target: T2, Type-B natriuretic peptide receptor in human corneal epithelial cells (Homo sapiens, UniProt P20594); assay: Natriuretic peptide-stimulated cGMP production (guanylyl cyclase activity, EIA) in human corneal epithelial cells; settings: cGMP production via type-B receptor
T2 construct: primary human corneal epithelial cells (P-CEPI) were isolated from human donor eyes; endogenous in cells; host or cells: primary human corneal epithelial cells (P-CEPI) and SV40-immortalized human corneal epithelial cells (CEPI-17-CL4)
T2 sequence (P20594 23-1047): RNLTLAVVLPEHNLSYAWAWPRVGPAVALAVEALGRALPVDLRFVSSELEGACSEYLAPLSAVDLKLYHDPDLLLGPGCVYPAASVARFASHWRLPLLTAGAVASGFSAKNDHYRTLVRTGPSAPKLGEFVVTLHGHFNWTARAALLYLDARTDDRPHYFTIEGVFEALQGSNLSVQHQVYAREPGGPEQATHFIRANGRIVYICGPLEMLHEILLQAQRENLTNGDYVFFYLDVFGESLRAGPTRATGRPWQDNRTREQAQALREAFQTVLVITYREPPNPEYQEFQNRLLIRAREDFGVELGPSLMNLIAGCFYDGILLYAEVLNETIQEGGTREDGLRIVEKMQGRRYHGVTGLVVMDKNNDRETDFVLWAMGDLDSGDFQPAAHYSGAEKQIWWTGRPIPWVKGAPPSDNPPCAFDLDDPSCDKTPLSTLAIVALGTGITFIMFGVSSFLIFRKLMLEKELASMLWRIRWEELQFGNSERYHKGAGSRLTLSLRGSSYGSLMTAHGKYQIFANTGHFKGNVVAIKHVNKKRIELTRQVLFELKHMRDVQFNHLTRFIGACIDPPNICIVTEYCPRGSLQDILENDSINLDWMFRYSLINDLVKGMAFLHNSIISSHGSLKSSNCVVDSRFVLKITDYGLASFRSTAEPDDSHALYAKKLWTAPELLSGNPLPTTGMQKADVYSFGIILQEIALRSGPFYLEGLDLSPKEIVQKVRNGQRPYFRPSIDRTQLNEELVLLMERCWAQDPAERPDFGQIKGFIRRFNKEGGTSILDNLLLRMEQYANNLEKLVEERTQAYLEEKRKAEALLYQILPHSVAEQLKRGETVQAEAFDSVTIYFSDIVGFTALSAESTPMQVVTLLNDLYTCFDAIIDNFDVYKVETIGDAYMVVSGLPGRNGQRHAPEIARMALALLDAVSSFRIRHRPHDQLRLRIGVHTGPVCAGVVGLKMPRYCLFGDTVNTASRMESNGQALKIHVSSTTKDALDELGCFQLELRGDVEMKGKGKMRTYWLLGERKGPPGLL
Method: Thus, primary human corneal epithelial cells (P-CEPI) were isolated from human donor eyes ≦24 hr postmortem and were cultured in EpiLife medium (Cascade Biologics, Portland, Oreg.) containing 1% human corneal growth supplement, 100 u/ml penicillin G, 100 mg/ml streptomycin sulfate. Culture plates were coated with fibronectin to help the cells adhere to the bottom of the plates. […]
In brief, compounds of interest were diluted in ethanol so that the final ethanol concentration was 1%, a concentration well tolerated by the cells. […] Finally, ice-cold 0.1 M sodium acetate (220 ml, pH 11.5-12.0) was added to neutralize the samples before analysis of cGMP by an enzyme immunoassay (EIA) kit. cGMP production in the cells was measured using the EIA kit purchased from Amersham Pharmacia Biotech (Piscataway, N.J.). […] Data were analyzed using a non-linear, iterative curve-fitting computer program (IDBS, Surrey, UK) and Origin software package (Microcal Software, Inc., Northampton, Mass.) (Sharif et al. 1996; Crider et al. 2003). […]

[3] = biological target: T3, type-B natriuretic peptide receptor in immortalized human corneal epithelial (CEPI-17-CL4) cells (Homo sapiens, UniProt P20594); assay: Antagonism of CNP fragment-induced cGMP production in immortalized human corneal epithelial (CEPI-17-CL4) cells; settings: mean ± SEM
T3 construct: primary human corneal epithelial cells (P-CEPI) were isolated from human donor eyes; endogenous in cells; host or cells: primary human corneal epithelial cells (P-CEPI) and SV40-immortalized human corneal epithelial cells (CEPI-17-CL4)
T3 sequence (P20594 23-1047): T2 sequence (P20594 23-1047)

C-type natriuretic peptide [CNP]
Agonist character in words [1]: weak partial agonist
Intrinsic Activity (Emax; % Max. Response) [1]: 26%
Intrinsic Activity (Emax; % Max. Response) [2]: 100%

brain natriuretic peptide [BNP]
Agonist character in words [1]: potent full agonists
Intrinsic Activity (Emax; % Max. Response) [1]: 94%
Intrinsic Activity (Emax; % Max. Response) [2]: 50.2%

O=C1Nc2ccccc2C1=O [isatin]
Ki [3]: 18 ± 4 µM
